Data: patent US11999782B2, “Therapeutic agents for the treatment of diseases associated with undesired cell proliferation” (Fundació Privada Institutció Catalana de Recerca I Estudis …, priority 2009, dated 2024)

Columns and labels:
[1] = system: GICs (glioma initiating cells) / GBM neurospheres; experiment: Self-renewal assay of GBM neurospheres (GICs derived from patients); type: cell-based, human; conditions: added with 100 pM TGFβ1; 2 μM TβRI inhibitor, anti-LIF neutralizing antibody or 0.5 pM P6; absence of EGF and FGF
Description: FIG. 1. Effect of TGFβ on the self-renewal of GIC derived from patients. (A) Representative images of PCTCs and neurospheres of GBM generated from samples of 3 different patients with GBM (GBM1, GBM2, GBM3). (B) Musashi-1 (Msi-1), Sox2, Nestin and β-actin were determined by means of RT-PCR analysis of PCTCs and neurospheres of 3 samples of human GBM. (C) 100,000 neurosphere (nsph.) or PCTC cells obtained from samples of GBM1, GBM2 and GBM3 tumors were intracranially inoculated in three Balbc nu/nu mice in each case. Magnetic resonance imaging (MRI) studies were performed on days 30-40 in each mouse. The images represent an example of mice inoculated with neurosphere or PCTC cells obtained from GBM1. The mice were weighed twice a week. The graph represents mice inoculated with cells derived from GBM1. (D and E) Neurosphere cells of the indicated GBMs were incubated in the absence of growth factors with 100 pM TGFβ1 and/or 2 μM TβRI inhibitor for 7 days and the number of newly formed neurospheres (D) and the total number of cells (E) were determined. (F) Representative images of GBM1 neurospheres treated as indicated in D and E.
FIG. 6. LIF mediates the increase of self-renewal of GIC by TGFβ. (A, B) GBM1, GBM2 and GBM3 neurosphere cells were treated with 100 pM TGFβ1, 20 ng/ml LIF and/or anti-LIF neutralizing antibody and 0.5 pM P6 in the absence of EGF and FGF and the number of newly formed neurospheres (A) or the total number of cells (B) was determined. (C) Representative images of GBM1 neurospheres treated as indicated in A and B.
The self-renewal of the neurospheres was evaluated by seeding an identical number of cells at a very low density in wells of a 96-well plate. The cells were treated, in the absence of growth factors, with the indicated compounds and the total number of new neurospheres formed after 7 days in culture was counted (Lee et al. (2008) Cancer Cell 13, 69-80; Reynolds and Weiss, (1996) Dev Biol 175, 1-13; Seaberg and van der Kooy, (2002) J Neurosci 22, 1784-1793).
It was decided to evaluate the effect of TGFβ on the capacity for self-renewal of GICs following a well described protocol based on the capacity of GICs to generate neurospheres (Reynolds and Weiss, 1996, Dev Biol. 175:1-13; Seaberg and van der Kooy, 2002, J Neurosci 22:1784-1793). The neurospheres derived from patients were disassociated into individual cells, treated with TGFβ or left untreated for 7 days in the absence of growth factors and the newly formed neurospheres and the total number of cells were counted. Following this protocol, the effect of TGFβ on the capacity for self-renewal of the GICs derived from three different patients was evaluated. […] These effects were blocked when an TGFβ I receptor inhibitor (TβRI) was added at the same time as TGFβ.
It was decided to assess whether LIF and JAK-STAT pathway mediated the increase of self-renewal of GICs by TGFβ. For this purpose, the neutralizing antibody against LIP and P6 was used to specifically block the effect of the secreted LIP on cells treated with TGFβ. The neurospheres were disassociated into individual cells and were treated with TGFβ, recombinant LIF, anti-LIF antibody and/or P6. The newly formed neurospheres and the total number of cells were counted. […] The treatment with the neutralizing antibody of LIP decreased the induction of the self-renewal of GICs by TGFβ.

[2] = system: STAT3 phosphorylation (JAK-STAT pathway); experiment: p-STAT3 Western blotting in GBM1 neurospheres; type: cell-based, human
Description: FIG. 5. TGFβ induces the LIF-JAK-STAT pathway in GEM neurospheres derived from patients. (A) The levels of p-STAT3 and STAT3 were determined by means of Western blotting of neurospheres of the sample of GBM1 treated with 20 ng/ml LIF for the indicated time periods. (B) The neurospheres of the sample of GBM1 were treated with 20 ng/ml LIF and/or 0.5 pM P6 for 15 minutes and the levels of total p-STAT3 and STAT3 were determined by means of Western blotting. (C) The neurospheres of the sample of GBM1 were treated with 100 pM TGFβ1 or the 2 pM TβRI inhibitor for 4 hours in the absence of EFG and FGF and the levels of p-STAT3, STAT3, p-Smad2, Smad2 and α-tubulin were determined by means of Western blotting. (D) the neurospheres of the sample of GBM1 were treated with 100 pM TGFβ1, 0.5 μM P6 or the blocking antibody against LIF for 4 hours in the absence of EGF and FGF and the levels of total p-STAT3 and STAT3 were determined by means of Western blotting.
Genomic DNA of U373MG was used to amplify the −634/+32 region of the human LIF promoter which was cloned into the pGL2-basic luciferase vector. The deletion constructs (−267/+32), and (−73/+32) were generated by means of digestion of the construct (−634/+32). Two point mutations were introduced in positions −183 bp and −184 bp in the construct (−267/+32) to interrupt the Smad binding element (SBE) and generate the construct (−267/+32) mutSBE. TGFβ1, TGFβ2, TGFβ3 (R&D Systems), TβRI inhibitor (SB431542, Tocris), LIF (Chemicon), the neutralizing antibodies against LIF (R&D), JAK inhibitor (tetracyclic pyridone 6 (P6) Calbiochem), the assembly of SMART siRNAs targeted to Smad2, Smad3 and Smad4 (Dharmacon), and the control siRNA siGlo (Dharmacon) were used at the indicated concentrations. The antibodies specific against p-Smad2, Smad2, p-STAT3 (p-Tyr705) and total STAT3 (Cell Signalling) and against Smad2, Smad3 and Smad4 (Hata et al., (2000) Cell 100, 229-240) were used for Western blotting.
In order to distinguish whether the LIF signaling pathway is functional in GEM neurospheres, the neurospheres were treated with recombinant LIF and the levels of phosphorylation of the downstream substrate of the LIF receptor complex, STAT3, were determined. […] Furthermore, the induction of p-STAT3 was prevented by the presence of a pharmacological JAK-specific, tetracyclic pyridone 6 (P6) (Pedranzini et al., 2006, Cancer Res, 66: 9714-9721; Thompson et al., 2002, Bioorg Med Chem Lett, 12:1219-1223) (FIG. 5B). […] It was decided to assess whether LIP was mediating the induction of p-STAT3 by TGFβ. For this purpose, a neutralizing antibody against LIF was used to specifically block the effect of secreted LIP on cells treated with TGFβ. The presence of the neutralizing antibody of LIP decreased the induction of p-STAT3 by TGFβ. Furthermore, the levels of p-STAT3 in cells treated with TGFβ were repressed by means of the treatment with P6 (FIG. 5D).

[3] = system: LIF expression in GBM neurospheres; experiment: LIF mRNA by qRT-PCR in GBM neurospheres; type: cell-based, human; conditions: 100 pM, 3 hours, medium without serum
Description: FIG. 3. TGFβ induces the expression of LIF in PCTC and GBM neurospheres. (A) PCTC cells of the 11 samples of the indicated GEM (GBM1-11) were treated with 100 pM TGFβ1 for 3 hours in medium without serum or left untreated, and the expression levels of LIF were determined by means of qRT-PCR. The g-actin was determined as an internal normalization control. (B) GBM neurosphere cells were treated as in A and the expression levels of LIF were determined by means of qRT-PCR as in A. (C) GBM neurospheres were incubated with 100 pM TGFβ1 and/or 2 μM TβRI inhibitor for 3 hours in medium without serum and the mRNA levels of LIF were determined by means of qRT-PCR as in A. (D) GBM1 neurospheres were incubated with 100 pM TGFβ1, TGFβ2 and TGFβ3 for 3 hours in medium without serum and the mRNA levels of LIF were determined by means of qRT-PCR as in A. (E) The levels of LIF protein secreted were determined by means of ELISA in GBM1 neurospheres after 48 hours of treatment with 100 pM TGFβ1.
The U373MG and A172 cells were a generous gift from J. Rich and D. Bigner and were cultured in DMEM with 10% fetal bovine serum (FBS). The primary culture of tumor cells (PCTC) and the GBM neurospheres were generated as described (Bruna et al., (2007) Cancer Cell 11, 147-160; Gunther et al., (2008) Oncogene. May 1; 27(20):2897-909). Briefly, the samples of tumors were processed in the 30 minutes after the surgical resection. The ground pieces of the samples of human gliomas were digested with 200 U/ml collagenase I (Sigma) and 500 U/ml of DNase I (Sigma) in PBS for 2 hours at 37° C. and with constant vigorous stirring. The suspension of individual cells was filtered through a 70 μm cell filter (BD Falcon) and washed with PBS. Finally, the cells were resuspended and subsequently cultured in DMEM with 10% FBS, for the culture of PCTCs, or in neurosphere medium in the case of the GBM neurospheres. The neurospheres of normal human neuroprogenitors were generated from human embryonic cerebral cortex tissue (12-16 weeks after the conception) collected after voluntary abortions. The samples were processed and cultured as described (Poltavtseva et al. (2002) Brain Res Dev Brain Res 134, 149-154). The neurosphere medium consists of neurobasal medium (Gibco) supplemented with B27 (Gibco), L-glutamine (Gibco), penicillin/streptomycin, and growth factors (20 ng/mL EGF and 20 ng/mL FGF-2 (Peprotech)).
(§1) qRT-PCR was performed using Taqman probes from Applied Biosystems, according to the manufacturer's recommendations. The reactions were carried out in a ABI 7000 sequence detector (Perkin Elmer) and the results were expressed as the fold change calculated by means of the DDCt method relative to the control sample or the first quantified sample. The ribosomal unit of 18S or β-actin were used as internal normalization controls.
It was decided to investigate the molecular mechanisms responsible for the effect of TGFβ on GICs. Gene responses to TGFβ in GBM cells which could be involved in the regulation of the self-renewal of GICs were investigated. In a previous work (Bruna et al., 2007), transcriptome analyses were conducted in the U373MG glioma cell line treated with TGFβ and/or a TβRI inhibitor. LIF was among the 63 gene responses to TGFβ in U373MG which were dependent on the activity of TβRI. […] A panel of PCTCs derived from 11 different human GBMs was treated with TGFβ for 3 hours and the levels of LIF mRNA were determined.

[4] = system: LIF expression in normal human neuroprogenitors; experiment: LIF mRNA in neurospheres of normal human neuroprogenitors; type: cell-based; conditions: 100 pM, 3 hours, compared with GBM neurospheres
Description: FIG. 8. Effect of TGFβ on the capacity of self-renewal of normal human neuroprogenitors. (A) Immunocytochemistry of the indicated markers was performed in human neuroprogenitor neurospheres. (B) Neurospheres of the sample of GBM1 and of human neuroprogenitors were incubated with the indicated members of the 100 pM TGFβ family for 3 hours and the mRNA levels of LIF were determined. (C, D) Neurosphere cells of normal human neuroprogenitors were incubated in the same conditions that have been described above in FIG. 1D in the presence of 100 pM TGFβ1 or 20 ng/ml LIF for 7 days and the number of newly formed neurospheres (C) and the number total of cells (D) were determined.
The U373MG and A172 cells were a generous gift from J. Rich and D. Bigner and were cultured in DMEM with 10% fetal bovine serum (FBS). The primary culture of tumor cells (PCTC) and the GBM neurospheres were generated as described (Bruna et al., (2007) Cancer Cell 11, 147-160; Gunther et al., (2008) Oncogene. May 1; 27(20):2897-909). Briefly, the samples of tumors were processed in the 30 minutes after the surgical resection. The ground pieces of the samples of human gliomas were digested with 200 U/ml collagenase I (Sigma) and 500 U/ml of DNase I (Sigma) in PBS for 2 hours at 37° C. and with constant vigorous stirring. The suspension of individual cells was filtered through a 70 μm cell filter (BD Falcon) and washed with PBS. […]
as §1, with “The ribosomal unit of 18S or β-actin were used as internal normalization controls.” left out
It was decided to assess whether this effect was specific to tumor cells or was also present in normal neuroprogenitor cells. […] First, it was determined if TGFβ induced LIF in normal human neuroprogenitors. […]

Molecule | effect on the induction of self-renewal of GICs by TGFβ (number of neurospheres, total number of cells) [1] | effect on the induction of p-STAT3 by TGFβ ([2]; 100 pM TGFβ1, 4 hours, absence of EGF and FGF, 2 pM TβRI inhibitor, 0.5 μM P6 or blocking antibody against LIF) | effect on the induction of p-STAT3 by LIF ([2]; 20 ng/ml LIF and 0.5 pM P6, 15 minutes) | LIF transcript in neurospheres derived from patients [3] | induction of LIF mRNA in normal human neuroprogenitor neurospheres [4]
CC(C)(C)c1nc2c3ccc(F)cc3c3c(=O)[nH]ccc3c2[nH]1 [P6, tetracyclic pyridone 6] | repressed | repressed | prevented | – | –
TGFβ2: TGFβ2 (R&D Systems), member of the TGFβ family (protein, UniProt P61812 303-414, looked up) Transforming growth factor …: ALDAAYCFRNVQDNCCLRPLYIDFKRDLGWKWIHEPKGYNANFCAGACPYLWSSDTQHSRVLSLYNTINPEASASPCCVSQDLEPLTILYYIGKTPKIEQLSNMIVKSCKCS | – | – | – | capable of inducing LIF | did not induce LIF
